Source: ChEMBL document CHEMBL1201862, “PubChem BioAssay data set” (2004)
Activity calls are given as the source filed them.

Columns and labels:
[1] = target: DNA dC->dU-editing enzyme APOBEC-3A (Homo sapiens, UniProt P31941); assay: APOBEC3A DNA deaminase inhibitors, dose response, biochemical (AID 504722); assay type: functional
[2] = target: DNA dC->dU-editing enzyme APOBEC-3G (Homo sapiens, UniProt Q9HC16); assay: Dose Response confirmation of small molecule APOBEC3G DNA Deaminase Inhibitors via a fluorescence-based single-stranded DNA deaminase assay. [Related pubchem assays (depositor defined):AID493012, AID493028]; assay type: functional
Chain of DNA dC->dU-editing enzyme APOBEC-3G (Q9HC16 whole entry): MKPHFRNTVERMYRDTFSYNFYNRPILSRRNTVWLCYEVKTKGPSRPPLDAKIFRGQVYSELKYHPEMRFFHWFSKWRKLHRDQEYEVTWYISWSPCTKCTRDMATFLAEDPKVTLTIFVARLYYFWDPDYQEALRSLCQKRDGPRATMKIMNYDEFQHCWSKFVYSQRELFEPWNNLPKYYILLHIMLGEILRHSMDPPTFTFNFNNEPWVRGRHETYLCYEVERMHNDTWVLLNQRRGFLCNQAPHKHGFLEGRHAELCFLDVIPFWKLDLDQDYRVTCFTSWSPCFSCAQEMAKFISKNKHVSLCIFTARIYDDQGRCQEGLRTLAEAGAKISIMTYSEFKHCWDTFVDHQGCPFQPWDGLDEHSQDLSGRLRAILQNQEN

[3] = target: Glyceraldehyde-3-phosphate dehydrogenase (Homo sapiens, UniProt P04406)
Chain of Glyceraldehyde-3-phosphate dehydrogenase (P04406 whole entry): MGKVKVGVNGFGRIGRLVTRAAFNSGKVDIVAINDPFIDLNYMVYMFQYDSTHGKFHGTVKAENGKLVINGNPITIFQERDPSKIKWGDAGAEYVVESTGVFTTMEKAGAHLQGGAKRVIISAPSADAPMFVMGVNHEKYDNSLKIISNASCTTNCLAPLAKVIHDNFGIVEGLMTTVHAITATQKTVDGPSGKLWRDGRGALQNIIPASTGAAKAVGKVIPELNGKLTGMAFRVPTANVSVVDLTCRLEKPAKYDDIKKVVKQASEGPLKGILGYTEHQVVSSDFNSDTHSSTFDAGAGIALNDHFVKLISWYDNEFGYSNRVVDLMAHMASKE

[4] = target: Alkaline phosphatase, placental type (Homo sapiens, UniProt P05187); assay: PLAP enzyme inhibitors, confirmation, biochemical, luminescence (AID 1512); assay type: functional
Chain of Alkaline phosphatase, placental type (P05187 whole entry): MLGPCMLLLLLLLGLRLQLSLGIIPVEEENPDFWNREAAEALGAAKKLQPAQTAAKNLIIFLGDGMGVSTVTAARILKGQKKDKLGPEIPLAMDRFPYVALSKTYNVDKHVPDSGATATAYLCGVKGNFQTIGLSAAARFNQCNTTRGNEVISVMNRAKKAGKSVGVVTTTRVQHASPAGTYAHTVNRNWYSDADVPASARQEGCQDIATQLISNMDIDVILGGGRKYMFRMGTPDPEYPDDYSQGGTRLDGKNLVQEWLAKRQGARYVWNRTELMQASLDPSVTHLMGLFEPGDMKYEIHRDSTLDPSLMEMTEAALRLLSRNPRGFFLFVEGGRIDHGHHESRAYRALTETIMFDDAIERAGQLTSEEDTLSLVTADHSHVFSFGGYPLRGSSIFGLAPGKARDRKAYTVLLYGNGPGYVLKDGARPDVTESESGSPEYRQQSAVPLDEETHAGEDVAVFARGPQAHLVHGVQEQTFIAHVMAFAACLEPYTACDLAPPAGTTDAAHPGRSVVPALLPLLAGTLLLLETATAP

[5] = target: T1, Alkaline phosphatase, tissue-nonspecific isozyme (Homo sapiens, UniProt P05186); assay: human TNAP enzyme inhibitors, SAR follow-up, biochemical, luminescent, dose response (AID 1056)
T1 sequence (P05186 whole entry): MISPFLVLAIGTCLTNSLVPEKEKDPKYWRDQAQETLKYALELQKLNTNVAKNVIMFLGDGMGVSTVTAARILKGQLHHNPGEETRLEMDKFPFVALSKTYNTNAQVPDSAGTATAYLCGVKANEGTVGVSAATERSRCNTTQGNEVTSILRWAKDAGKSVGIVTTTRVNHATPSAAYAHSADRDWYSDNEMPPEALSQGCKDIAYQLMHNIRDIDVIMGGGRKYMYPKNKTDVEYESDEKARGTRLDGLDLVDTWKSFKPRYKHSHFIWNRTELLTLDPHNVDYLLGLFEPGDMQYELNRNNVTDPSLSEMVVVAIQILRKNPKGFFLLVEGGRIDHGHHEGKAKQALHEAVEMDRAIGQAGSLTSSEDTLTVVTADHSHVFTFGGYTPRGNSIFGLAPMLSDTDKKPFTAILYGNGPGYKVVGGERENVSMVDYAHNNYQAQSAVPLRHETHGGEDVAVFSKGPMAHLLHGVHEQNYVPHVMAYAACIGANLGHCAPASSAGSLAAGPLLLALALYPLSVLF

[6] = target: G-protein coupled receptor 55 (Homo sapiens, UniProt Q9Y2T6); assay: GPR55 antagonists blocking LPI-driven arrestin recruitment, primary screen, imaging, U2OS, beta-arrestin-GFP, LPI agonist (AID 2013); assay type: functional;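 also: antagonist potency measured as reduced agonist-driven arrestin aggregation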
Chain of G-protein coupled receptor 55 (Q9Y2T6 whole entry): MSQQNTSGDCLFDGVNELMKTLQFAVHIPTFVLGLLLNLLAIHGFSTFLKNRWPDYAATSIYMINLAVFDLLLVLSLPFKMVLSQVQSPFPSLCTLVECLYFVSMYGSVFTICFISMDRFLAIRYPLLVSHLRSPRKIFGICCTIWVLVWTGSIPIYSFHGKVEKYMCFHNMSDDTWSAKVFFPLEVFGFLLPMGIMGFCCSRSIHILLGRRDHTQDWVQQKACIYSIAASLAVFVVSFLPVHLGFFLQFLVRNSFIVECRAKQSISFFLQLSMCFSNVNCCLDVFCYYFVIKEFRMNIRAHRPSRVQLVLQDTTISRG

Vero = Vero cell cytotoxicity, cytotoxicity control for flavivirus capping enzyme inhibitors (AID 588742); assay type: functional; conditions: Chlorocebus sabaeus
[7] = NIH-3T3 fibroblast cytotoxicity, dose response, cytotoxicity control, cell-based, fluorescence, Alamar Blue, secondary assay (AID 2327); assay type: functional;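 also: NIH-3T3 mouse fibroblasts cultured with fluconazole at 8 µg/mL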
[8] = insulin promoter down-regulators in MIN6 cells, imaging, high-content screening, mouse beta cells (AID 1628); assay type: functional
[9] = cytotoxicity in MIN6 insulinoma cells, dose response, cytotoxicity control, cell-based, mouse insulinoma (AID 2122); assay type: functional;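 also: confirmatory high-throughput counterscreen run to flag cytotoxic compounds; mouse MIN-6 beta cells carrying an insulin promoter eGFP reporter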
[10] = C. albicans growth with fluconazole, confirmation, fluorescence, retest (AID 2467); assay type: functional, cell-based
[11] = inhibitors of intracellular T. cruzi replication, confirmation, NIH3T3 host cells, beta-gal luminescence (AID 2044); assay type: functional, cell-based;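 also: intracellular parasites grown in NIH/3T3 mouse fibroblasts as host cells; luminescent beta-galactosidase reporter signal from transgenic T. cruzi replicating inside host cells; inhibitors lower the luminescence signal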
[12] = target: T2, Serine/threonine-protein phosphatase (Candida dubliniensis (strain CD36 / CBS 7987 / NCPF 3949 / NRRLY-17841) (Yeast), UniProt B9W6M3); assay: calcineurin pathway inhibitors in yeast reporter, dose response, S. cerevisiae, CDRE-lacZ, luminescence, secondary (AID 2388); assay type: functional, cell-based;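 also: yeast reporter cells carrying a calcineurin-responsive lacZ construct stimulated with calcium chloride; luminescent beta-galactosidase reporter signal in whole cells rather than isolated phosphatase activity; potency for inhibition where a drop in reporter signal means calcineurin blockade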
T2 sequence (B9W6M3 whole entry): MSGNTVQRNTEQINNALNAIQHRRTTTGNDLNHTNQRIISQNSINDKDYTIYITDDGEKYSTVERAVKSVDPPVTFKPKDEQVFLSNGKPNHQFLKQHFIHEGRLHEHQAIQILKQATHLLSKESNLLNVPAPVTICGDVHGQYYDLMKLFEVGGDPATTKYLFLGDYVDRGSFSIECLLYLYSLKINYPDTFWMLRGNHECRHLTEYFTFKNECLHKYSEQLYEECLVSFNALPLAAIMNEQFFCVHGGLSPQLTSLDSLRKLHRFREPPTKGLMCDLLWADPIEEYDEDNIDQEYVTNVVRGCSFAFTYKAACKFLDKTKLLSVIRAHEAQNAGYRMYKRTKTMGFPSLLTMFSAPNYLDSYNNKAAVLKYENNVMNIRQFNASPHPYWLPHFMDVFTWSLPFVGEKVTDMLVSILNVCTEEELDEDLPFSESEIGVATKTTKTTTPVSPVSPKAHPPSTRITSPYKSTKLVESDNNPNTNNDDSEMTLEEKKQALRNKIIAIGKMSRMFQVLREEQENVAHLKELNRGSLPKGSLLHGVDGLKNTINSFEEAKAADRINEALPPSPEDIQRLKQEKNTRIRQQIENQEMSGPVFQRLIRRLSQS

[13] = cytotoxicity toward NIH3T3 fibroblasts, dose response, counter-screen, cell-based, ATP luminescence, mouse fibroblasts (AID 2010); assay type: functional;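 also: cells exposed to compound for about 90 hours before reading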
[14] = target: T3, Microphthalmia-associated transcription factor (Homo sapiens, UniProt O75030); assay: TRPM1 promoter luciferase signal decrease, dose response, MITF inhibitor project, cell-based, SK-MEL-5, cherry-picked, set 3 (AID 493073); assay type: functional
T3 sequence (O75030 whole entry): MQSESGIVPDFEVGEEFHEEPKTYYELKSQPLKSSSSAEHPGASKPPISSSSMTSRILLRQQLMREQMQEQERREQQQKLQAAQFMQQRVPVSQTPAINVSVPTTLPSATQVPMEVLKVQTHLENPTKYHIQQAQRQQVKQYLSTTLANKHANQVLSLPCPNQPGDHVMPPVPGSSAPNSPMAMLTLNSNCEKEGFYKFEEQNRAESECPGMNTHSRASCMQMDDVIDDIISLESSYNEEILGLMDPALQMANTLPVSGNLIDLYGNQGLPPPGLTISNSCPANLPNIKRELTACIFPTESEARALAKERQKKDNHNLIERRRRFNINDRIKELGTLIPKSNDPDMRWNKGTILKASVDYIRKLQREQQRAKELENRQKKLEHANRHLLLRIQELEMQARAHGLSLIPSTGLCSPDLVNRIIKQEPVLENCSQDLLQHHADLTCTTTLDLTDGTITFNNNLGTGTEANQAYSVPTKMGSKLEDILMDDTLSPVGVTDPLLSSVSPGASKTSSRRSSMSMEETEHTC

[15] = target: Heat shock protein HSP 90-alpha (Homo sapiens, UniProt P07900); assay type: functional, organism-based
INS1 = assay: beta cell apoptosis inhibitors, cytokine rescue, dose response, luminescence, retest (AID 449756); assay type: functional, cell-based; conditions: Rattus norvegicus;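 also: cell death triggered by IL-1 beta plus TNF-alpha plus IFN-gamma mixture; protective hits raise ATP signal compared with cytokine alone wells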
[16] = target: ATP-dependent molecular chaperone HSP82 (Candida albicans (strain WO-1) (Yeast), UniProt C4YTQ8); assay: loss of DOC-induced GRE-beta-galactosidase reporter signal, dose response, Hsp90 inhibitor project, S. cerevisiae, luminescence (AID 2400); assay type: functional, cell-based;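 also: beta-galactosidase luminescence from glucocorticoid response element reporter as proxy for Hsp90 function; inhibitor potency where signal loss means Hsp90 inhibition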
Chain of ATP-dependent molecular chaperone HSP82 (C4YTQ8 whole entry): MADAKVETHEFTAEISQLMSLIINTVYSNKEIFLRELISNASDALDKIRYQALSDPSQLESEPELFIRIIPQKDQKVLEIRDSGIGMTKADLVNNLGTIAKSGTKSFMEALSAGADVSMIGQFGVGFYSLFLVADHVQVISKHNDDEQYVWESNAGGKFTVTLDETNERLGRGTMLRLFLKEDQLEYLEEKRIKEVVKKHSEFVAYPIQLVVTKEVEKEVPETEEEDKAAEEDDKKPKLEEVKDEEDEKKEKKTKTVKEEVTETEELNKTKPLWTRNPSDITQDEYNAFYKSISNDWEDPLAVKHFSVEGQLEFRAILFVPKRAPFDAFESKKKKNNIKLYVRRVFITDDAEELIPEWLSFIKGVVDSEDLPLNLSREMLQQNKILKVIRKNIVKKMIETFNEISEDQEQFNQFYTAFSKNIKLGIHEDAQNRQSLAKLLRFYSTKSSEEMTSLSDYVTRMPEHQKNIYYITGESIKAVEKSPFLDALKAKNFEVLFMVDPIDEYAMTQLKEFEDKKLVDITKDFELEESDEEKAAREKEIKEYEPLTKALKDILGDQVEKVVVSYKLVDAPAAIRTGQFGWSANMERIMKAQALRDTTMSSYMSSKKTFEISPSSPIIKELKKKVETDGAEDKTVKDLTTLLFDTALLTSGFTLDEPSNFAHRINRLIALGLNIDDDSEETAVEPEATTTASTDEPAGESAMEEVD

Cytochrome P450 2C19 = Cytochrome P450 2C19 (Homo sapiens, UniProt P33261); assay: Cytochrome panel assay with activity outcomes. Panel member name: p450-cyp2c19 Compounds with AC50 equal or less than 10 uM are considered active; assay type: functional
Chain of Cytochrome P450 2C19 (P33261 whole entry): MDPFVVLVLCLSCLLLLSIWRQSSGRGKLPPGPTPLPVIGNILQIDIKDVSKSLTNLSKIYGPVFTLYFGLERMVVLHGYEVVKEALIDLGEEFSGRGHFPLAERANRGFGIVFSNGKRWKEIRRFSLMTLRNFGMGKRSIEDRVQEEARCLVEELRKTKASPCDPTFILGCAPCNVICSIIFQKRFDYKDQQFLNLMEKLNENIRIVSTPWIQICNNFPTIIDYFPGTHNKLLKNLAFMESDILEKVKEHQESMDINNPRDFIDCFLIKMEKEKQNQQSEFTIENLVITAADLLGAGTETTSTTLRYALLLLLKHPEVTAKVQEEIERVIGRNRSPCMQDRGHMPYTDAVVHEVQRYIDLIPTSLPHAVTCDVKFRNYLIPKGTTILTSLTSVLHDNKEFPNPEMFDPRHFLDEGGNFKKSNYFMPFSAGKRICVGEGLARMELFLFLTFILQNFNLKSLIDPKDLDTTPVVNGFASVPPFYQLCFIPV

Bcl-2-related protein A1 = target: T4, Bcl-2-related protein A1 (Mus musculus, UniProt Q07440); assay type: functional;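 also: confirmatory dose–response counterscreen on Bfl-1, used to check hits from a UBC13 polyubiquitin inhibitor campaign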
T4 sequence (Q07440 whole entry): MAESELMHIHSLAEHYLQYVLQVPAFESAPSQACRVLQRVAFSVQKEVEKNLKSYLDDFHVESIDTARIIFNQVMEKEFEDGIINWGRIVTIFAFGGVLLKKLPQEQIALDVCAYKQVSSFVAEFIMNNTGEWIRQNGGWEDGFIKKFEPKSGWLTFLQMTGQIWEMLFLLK

[17] = target: T5, Ubiquitin-conjugating enzyme E2 N (Homo sapiens, UniProt P61088); assay type: functional
T5 sequence (P61088 whole entry): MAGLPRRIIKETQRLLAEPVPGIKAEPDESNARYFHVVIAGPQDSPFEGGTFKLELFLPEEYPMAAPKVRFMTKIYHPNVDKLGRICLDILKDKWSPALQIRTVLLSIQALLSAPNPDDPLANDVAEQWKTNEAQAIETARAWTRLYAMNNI

[18] = target: T5, Ubiquitin-conjugating enzyme E2 N; assay type: functional; remark: listed apart in the source
ORF 73 = target: T6, ORF 73 (Human herpesvirus 8, UniProt O40947); assay: inhibitors of C-LANA binding to LBS DNA, dose response, biochemical, fluorescence polarization, cherry-picked samples (AID 504725); design: species or system Human gammaherpesvirus 8;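 also: fluorescence polarization of a labeled DNA duplex reporting LANA DNA binding; potency is for inhibitors that block LANA binding to the DNA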
T6 sequence (O40947 whole entry): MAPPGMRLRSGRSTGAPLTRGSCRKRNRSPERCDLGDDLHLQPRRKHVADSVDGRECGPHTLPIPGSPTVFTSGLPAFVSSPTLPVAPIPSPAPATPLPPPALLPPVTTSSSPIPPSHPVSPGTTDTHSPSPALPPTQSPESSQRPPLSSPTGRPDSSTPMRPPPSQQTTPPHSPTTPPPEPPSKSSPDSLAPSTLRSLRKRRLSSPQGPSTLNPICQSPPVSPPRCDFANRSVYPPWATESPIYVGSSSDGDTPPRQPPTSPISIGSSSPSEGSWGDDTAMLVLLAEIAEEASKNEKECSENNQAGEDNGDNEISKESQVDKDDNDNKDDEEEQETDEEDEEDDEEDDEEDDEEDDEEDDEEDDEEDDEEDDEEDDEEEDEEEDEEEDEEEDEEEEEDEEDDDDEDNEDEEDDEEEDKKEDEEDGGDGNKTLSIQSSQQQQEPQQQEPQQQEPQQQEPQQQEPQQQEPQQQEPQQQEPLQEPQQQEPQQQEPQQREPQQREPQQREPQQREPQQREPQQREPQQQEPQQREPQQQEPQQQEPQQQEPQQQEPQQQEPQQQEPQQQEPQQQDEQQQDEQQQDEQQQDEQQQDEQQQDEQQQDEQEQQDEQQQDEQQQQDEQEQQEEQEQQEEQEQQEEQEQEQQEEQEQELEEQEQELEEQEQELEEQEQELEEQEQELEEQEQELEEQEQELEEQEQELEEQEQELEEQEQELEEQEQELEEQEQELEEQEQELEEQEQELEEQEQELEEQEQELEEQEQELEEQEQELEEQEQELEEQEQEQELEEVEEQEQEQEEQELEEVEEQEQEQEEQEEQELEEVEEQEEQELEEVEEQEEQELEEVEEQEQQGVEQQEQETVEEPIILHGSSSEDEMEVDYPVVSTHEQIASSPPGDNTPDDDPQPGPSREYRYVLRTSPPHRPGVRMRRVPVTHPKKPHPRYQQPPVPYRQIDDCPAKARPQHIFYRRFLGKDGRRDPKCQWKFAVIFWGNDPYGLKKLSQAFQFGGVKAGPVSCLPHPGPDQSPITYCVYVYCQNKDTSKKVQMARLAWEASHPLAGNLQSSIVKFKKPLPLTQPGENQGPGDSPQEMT

[19] = ARNT/TACC3 interaction disruptors, potency, confirmation, biochemical, AlphaScreen, cherry-picked samples (AID 651703); assay type: functional, Homo sapiens;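 also: His-tagged ARNT PAS-B domain paired with GST-TACC3 E629A dimer coactivator fragment; potency of inhibitors that break up the complex and lower AlphaScreen signal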

Chain of DNA dC->dU-editing enzyme APOBEC-3A (P31941 whole entry): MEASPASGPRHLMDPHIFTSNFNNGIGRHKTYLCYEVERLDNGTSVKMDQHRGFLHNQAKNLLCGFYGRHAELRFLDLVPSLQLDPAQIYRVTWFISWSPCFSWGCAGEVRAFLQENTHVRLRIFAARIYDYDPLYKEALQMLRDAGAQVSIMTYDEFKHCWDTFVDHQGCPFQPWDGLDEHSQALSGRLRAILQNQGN

SMILES: CC(C)Cn1c(-c2ccccc2F)n[nH]c1=S
- IC50 [1]: > 100 µM (inactive)
- IC50 [2]: 5.39 µM (active)

SMILES: Cc1ccc(-c2nc(N)nn2-c2ccccc2)cc1
- IC50 [3]: > 100 µM (not active)
- IC50 [4]: > 100 µM (inactive)
- IC50 [5]: > 100 µM (inactive)

SMILES: Cc1[nH]c2nc(S)nc-2cc1Br
- IC50 [1]: > 100 µM (inactive)
- IC50 [2]: 1.98 µM (active)

SMILES: Cc1c(CCOC(=O)c2ccc(N3CCOCC3)c([N+](=O)[O-])c2)sc[n+]1CC#N
- IC50 [6]: 5.68 µM (active)

SMILES: O=C(COC(=O)c1cc(-c2ccc(Cl)s2)nc2ccccc12)NCc1ccco1
- CC50 (Vero): > 40 µM (active)

SMILES: Cc1noc(C)c1CN(C(=S)NC1CC2CCC1C2)c1ccccc1 (stereo unspecified)
- IC50 [6]: 3.74 µM (active)

SMILES: O=C(N/N=C/c1ccc(O)c2ncccc12)c1cccc(Br)c1
- EC50 [7]: > 160 µM (inactive)
- IC50 [8]: 1.67 µM (active)
- IC50 [9]: 1.68 µM (active)
- EC50 [10]: 0.729 µM (active)
- EC50 [11]: 1.66 µM (active)
- EC50 [12]: > 180 µM (inactive)
- EC50 [13]: 5.44 µM (active)
- AC50 [14]: 7.28 µM (active)
- AC50 [15]: 3.83 µM (active)
- AC50 (INS1): 1.22 µM (active)
- EC50 [16]: 22.2 µM (active)

SMILES: O=C(CSc1nnc(-c2ccncc2)[nH]1)c1ccc(O)c(O)c1
- IC50 [4]: 6.95 µM (active)
- IC50 [5]: 6.53 µM (active)

SMILES: Cc1nn(-c2ccccn2)c2nc(-c3cccs3)cc(C(=O)NCc3ccco3)c12
- CC50 (Vero): > 40 µM (active)

SMILES: Cc1nnc(NC(=O)CSc2ncnc3c2cnn3-c2ccccc2C)s1
- EC50 [7]: > 150 µM (inactive)
- EC50 [10]: 0.573 µM (active)
- EC50 [12]: > 180 µM (inactive)
- AC50 (Cytochrome P450 2C19): inconclusive
- EC50 [16]: > 150 µM (inactive)

SMILES: CCOC(=O)c1cc(C)nc(S)c1C#N
- IC50 [1]: > 100 µM (inactive)
- IC50 [2]: 4.65 µM (active)

SMILES: CC1(C)Oc2ccc([N+](=O)[O-])cc2O1
- IC50 [4]: > 100 µM (inactive)
- IC50 [5]: > 100 µM (inactive)

SMILES: CC1(C)Cc2c(sc(NC(=O)C(=O)N3CCCC3)c2C(N)=O)CO1
- IC50 (Bcl-2-related protein A1): > 20 µM (inactive)
- IC50 [17]: 9.62 µM (active)
- IC50 [18]: 1.47 µM (active)

SMILES: C/C(=N/NC(=O)c1ccncc1)c1cc2ccc(O)cc2oc1=O
- AC50 (ORF 73): 0.544 µM (active)
- AC50 [19]: 116 µM (active)

SMILES: Cn1cncc1C#Cc1c(-c2ccc(S(C)(=O)=O)cc2)sc2ccccc12
- IC50 (Bcl-2-related protein A1): > 20 µM (inactive)
- IC50 [17]: 8.84 µM (active)
- IC50 [18]: 3.37 µM (active)
